Source: publication PMC8748493, “Helical structure motifs made searchable for functional peptide design” (Nature Communications, 2022)
Where no end group is shown, it is not given here.

Assays:
[1] = system: Escherichia coli ATCC 25922; conditions: E. coli ATCC 25922; cited from earlier work
Procedure: Contrasting to the simulation results of W3_p1 and W3_p2, W3_db5 has only one Trp (W3) inserted into the bacterial membrane by the end of 1 μs simulation (Supplementary Movie 1 and Supplementary Fig. 3). To further examine the bactericidal and anti-fungal activities of these AMPs, we measure the minimal inhibitory concentration (MIC90) at which the growth of 90% of the pathogenic fungus Candida albicans SC5314 and Escherichia coli ATCC 25922 can be inhibited. Experiments are performed in pentaplicate and MIC90 is determined as the majority results of the 5 replicates (see “Methods”). It is wor ...

[2] = system: Escherichia coli ATCC 25922; conditions: ATCC 25922, 18 h; for E. coli ATCC 25922 killed in the MIC90 experiments: 30
Procedure: (§1) Contrasting to the simulation results of W3_p1 and W3_p2, W3_db5 has only one Trp (W3) inserted into the bacterial membrane by the end of 1 μs simulation (Supplementary Movie 1 and Supplementary Fig. 3). […] Experiments are performed in pentaplicate and MIC90 is determined as the majority results of the 5 replicates (see “Methods”). It is worth mentioning that we could reproduce the reported MIC90 values for three published AMPs when using the same culture protocol to culture E. coli ATCC 25922. […] The latter result is consistent with the MD-based natural insertion results (Supplementary Fig. 3).
(§2) To measure the antimicrobial activity of peptides, MICs were determined by the broth-dilution assay as described in Clinical and Laboratory Standards Institute (CLSI) documents M27-A3 for yeasts[63] and M07-A9 for bacteria[64] with minor modifications. Briefly, E. coli ATCC 25922 and C. albicans SC5314 were recovered from frozen stock by growing overnight at 37 °C on LB (Luria-Bertani) and YPD (Yeast Extract-Peptone-Dextrose) agar plates, separately. A single colony of E. coli was inoculated into 5 ml LB medium and grown overnight at 37 °C with shaking at 220 rpm. Cells were then diluted into MHB (Mueller–Hinton broth) at 1:100, and grew until the optical density at 600 nm (OD600) reached 0.4 to 0.8. For C. albicans SC5314, a single colony was inoculated in YPD broth and grown overnight at 30 °C with shaking at 180 rpm. Cells from the overnight culture were subcultured into fresh YPD and grew to mid-log phase. Finally, E. coli and C. albicans cells obtained from the above-described were diluted into MHB and LYM, a modified RPMI 1640 medium[65] to a concentration of ~5 × 10^5 cells/ml and ~4 × 10^4 cells/ml, respectively. To determine the MIC values, one hundred microliters of cells was placed in each well of a clear bottom 96-well microplate, followed by independently adding 100 μl peptides with different concentrations (in MHB or LYM). The final concentrations in the wells were 120, 60, 30, 15, 7.5, 3.75, and 1.88 μg/ml for peptides, ~2.5 × 10^5 cells/ml for E. coli and ~2 × 10^4 cells/ml for C. albicans. The plate was incubated at 37 °C with shaking at 220 rpm for 18 h (E. coli) and at 180 rpm for 24 h (C. albicans). The OD600 values were measured using a iMark^TM Microplate Absorbance Reader (Bio-Rad). The MIC90 value was determined by 90% reduction in growth compared with that of the peptide-free growth control. Experiments were performed in pentaplicate, and MIC90 was determined as the majority value out of 5 repeats.

human RBCs = assay type: cell-based
Procedure: The hemolytic toxicity was determined by the hemolysis against human RBCs as in previous publication. First, RBCs from healthy donors were mixed with EDTA in the collecting tubes to inhibit the coagulation. Then the RBCs were washed for three repeats as follows—centrifugation at RCF 800 × g for 10 min, removal of the supernatant, and resuspension with PBS buffer. Such washed RBCs stock was finally diluted with a PBS buffer to be the 10% (v/v) RBCs solution for assays. Then total eight samples of various final concentrations (240, 120, 60, 30, 15, 7.5, 3.75, and 1.88 μg/ml) for each AMP in 96-well microplate were prepared by mixing 10% RBCs and diluted AMP solutions, respectively, at ratio 1:1 (v/v) into final volume 200 μl. All samples were placed under the condition of 37 °C for 1 h and then centrifuged at RCF 800 g for 10 min. Finally, all these supernatants from samples and controls were picked out for the measurement of optical density at the 450 nm wavelength. The data processing was performed to calculate the hemolytic percentage defined as [Asample − Acontrol−]/[Acontrol+ − Acontrol−], where Acontrol+ and Acontrol− are the measurement at wavelength 450 nm for the positive and negative controls, that are 100 μl 10% RBCs suspended in 100 μl PBS buffer with and without 2% (v/v) Triton X-100 (a known detergent to lyse the RBCs), respectively. The final hemolytic percentage for AMPs at various concentrations was determined by the mean values of three repeated experiments, and MHC5 value, defined as the minimal concentration of AMPs leading to at least 5% hemolysis of RBCs, can be determined.

Candida albicans SC5314 = conditions: SC5314, 24 h
Procedure: as §1, §2

[3] = Circular dichroism, helicity percentage by DichroWeb; assay type: physicochemical; conditions: CD spectra 190 to 260 nm
Description: We found W3_db5 adopts a higher helicity than W3_n2 that is found to be more helical than W3_n1 (Fig. 5), where W3_n1 has a helicity closest to Tat, a popular cell-penetrating peptide known to take a random coil structure. This low helicity is consistent with the fact that the “WGN WGG W” stretch in W3_n1 takes mostly coil and sheet structures in its original PDB file (PDB ID: 4F54). The online software DichroWeb[44] provides a helicity percentage prediction for Tat, W3_n1, W3_n2, W3_db5, W3_p1, W3_p2, and CM15 based on their spectra data over the wavelength 190 to 260 nm wavelength −6.5, 2.0, 18.3, 60.2, 57.8, 51.2, and 54%, respectively.
Fig. 5 The CD spectra from 190 to 260 nm for all the examined peptides in the study where CM15[1],[50] is a known helical AMP and Tat, a cell-penetrating peptide (YGRKKRRQRRR) extracted from the transactivating transcriptional activator, is in a random coil structure. All the experimental data are provided as a Source data file.

[4] = cited from earlier work
Description: It should be carefully noted that helicity percentage is also concentration-dependent. NMR-resolved structures are usually determined at a concentration of several mM, while CD spectra measure at a few tens of μM. It has been reported by several studies that the same helical peptide resolved by NMR (at high concentration) has a higher helicity percentage than that of the same measured by CD (at a lower concentration). For instance, an intragenic AMP (PDB ID: 6VLA) has a helicity percentage of 94% according to its NMR-resolved structure but 59% by CD[48]. Similarly, an AMP from Whiteleg shrimp ...

FKRIVQRIKDFLR-NH2 (C-terminus assumed) [FK13]
reported MIC [1]: 27.5 µg/mL | MIC90 vs. E. coli [2]: 25 µg/mL

GLLKKIKWLL-NH2 (C-terminus assumed) [Anoplin-R5KT8W]
reported MIC [1]: 15.1 µg/mL

KKWGNWGGWRLKK [W3_n1]
MIC90 vs. E. coli [2]: >>120 μg/ml | E. coli ATCC 25922 killed in the MIC90 experiments [2]: 2.5%

KKWKCWARWRLKK [W3_db5]
hemolysis reduction of human RBCs as compared to templates W3-p1 and W3-p2 (human RBCs): 20–40 folds | MIC90 vs. C. albicans (Candida albicans SC5314): 3.75 µg/mL | MIC90 vs. E. coli [2]: 30 µg/mL

KKWKDWESWRLKK [W3_n2]
MIC90 vs. E. coli [2]: >>120 μg/ml | E. coli ATCC 25922 killed in the MIC90 experiments [2]: 9.5%

KKWLKWLKWLKKK [W3_p2]
MHC5 (human RBCs): 90 µg/mL | MIC90 vs. C. albicans (Candida albicans SC5314): 7.5 µg/mL | MIC90 vs. E. coli [2]: 15 µg/mL

KKWRKWLKWLAKK [W3_p1]
MHC5 (human RBCs): 120 µg/mL | MIC90 vs. C. albicans (Candida albicans SC5314): 7.5 µg/mL | MIC90 vs. E. coli [2]: 15 µg/mL

KWKLFKKIGAVLKVL-NH2 (C-terminus assumed) [CM15]
helicity percentage (DichroWeb, from CD spectra) [3]: 54% | helicity by NMR [4]: 80% | helicity percentage by CD [4]: 65% | reported MIC [1]: 4.0 µg/mL
